These results are taken from US12311014B1, “Composition and use thereof for the treatment of equine gastric ulcer syndrome” (priority 2024, dated 2025).

The subject of data set [1] is mammalian cells. Conditions: cell culture studies; cited from earlier work.
Data set [2] deals with piglets weaned at 28 days (control of E. coli infection). Briefly: Pig trial 1: weight gain and feed intake of weaned piglets. In kind it is in vivo, pigs. The method, then: A trial was conducted to determine the potential impact of the compositions of the invention for controlling E. coli infection and improving animal health.
Piglets were weaned at 28 days of age with an average weight of 8.6±0.98 kg. At weaning (i.e. no longer suckling), litters were homogenized to a maximum of 14 pigs and assigned to either a control group (no additional feed component), to a first test group to which the composition of the invention was administered, and to a second test group to which zinc oxide was administered. Pigs were fed starter diets up until day 14 of the trial when the trial completed.
Group weight and feed intake was recorded at day 0, 7 and 14 of the experiment.
The composition of the invention comprised: 10 mg LPO and 8 mg KI and excipients. The composition was formulated as a powder. The composition was administered once daily with feed for 14 days. […] Zinc oxide was administered to the second test group at a concentration of 3000 ppm i.e. 3 g/kg of feed.

The subject of data set [3] is pigs at weaning (scour/diarrhea). Briefly: Pig trial 2: 240 weaned pigs, weight, health and cleanliness scores. It is filed as in vivo. On the procedure:
A further study involving 240 pigs was carried out with a higher dose of lactoperoxidase and potassium iodide. The pigs were weighed and allocated to the trail at weaning (approximately 28 days of age).
The groups were homogenized with respect to group total weight and gender profile, and each group was divided into pens, with 5 pigs per pen. […] The pigs were weighed individually at the start of the study on day 7 and on day 14. Pigs were assessed each morning for general health, faeces was examined—to check for scour/diarrhea, and pigs per give a cleanliness score

Data set [4] in a line: Lactoperoxidase ABTS activity (UV-vis). In kind it is biochemical. Conditions: 1000 units = amount of enzyme that oxidises 1 mmol of ABTS in 5 minutes at pH 6.0 and 35° C. The method, then: Lactoperoxidase was isolated from bovine milk. The lactoperoxidase activity (U/mg) was greater than 1000 units ABTS activity (determined using UV-vis). 1000 units ABTS activity (U): amount of enzyme that oxidises 1 mmol of ABTS in 5 minutes at pH 6.0 and 35° C. ABTS: 2,2′-azinobis-(3-ethyl benzthiazoline-6-sulphonic acid).

As for `OO` [hydrogen peroxide], in data set [1], the cytotoxic concentrations is 0.05 to 0.58 mmol/L.

Consider `[O]=[Zn]` [zinc oxide], for which the Average body weight amounted to 8.5 kg in data set [2] (Day 0 (baseline at weaning)); 10.1 kg in data set [2] (Day 7, Test 1: 10 mg LPO and 8 mg KI daily, Test 2: zinc oxide 3000 ppm in feed); 13.7 kg in data set [2] (Day 14, Test 1: 10 mg LPO and 8 mg KI daily, Test 2: zinc oxide 3000 ppm in feed). The “Average daily gain day 14” value in data set [2] (piglets weaned at 28 days, Test 1: 10 mg LPO and 8 mg KI powder once daily with feed for 14 days, Test 2: zinc oxide 3000 ppm in feed) worked out at 369 g/day. The “Average daily feed intake day 14” value in data set [2] (piglets weaned at 28 days, Test 1: 10 mg LPO and 8 mg KI powder once daily, Test 2: zinc oxide 3000 ppm in feed) is 455 g/day. In data set [3] (PC: 3100 ppm ZnO diet, test: 20 mg LPO and 20 mg KI per day, NC diet approximately 0.8 kg less than PC), the “pig weight at the end of the 14 days” value is recorded as “heaviest”. The cleanliness score result in data set [3] (score 1 (clean) to 4 (heavily contaminated with faecal material), 14 day study) was “lowest cleanliness score”.

Turning to Lactoperoxidase, the “lactoperoxidase activity (units ABTS activity)” value in data set [4] was “greater than 1000 U/mg”.
